In DBAASP one finds MIC data, which are given here for six molecules.

SMILES strings stand for the structures. Converted amounts (≈) assume the structure as drawn. “And” between values parts separate entries of the source, which are not always exact repeats. Identical values can stand only once.

Common to all, as to experiment: ≥ marks a high value that may be exact or a test limit, other limits are often not marked, values filed in µg/mL are converted to µM
Assay [1] relates to Escherichia coli ATCC 25726.
Assay [2] deals with Staphylococcus aureus ATCC 25923.
Assay [3] deals with Batrachochytrium dendrobatidis JEL-197.
Assay [4] concerns Klebsiella pneumoniae ESBL 63575.
Assay [5] concerns Pseudomonas aeruginosa PAO1 H103.
Assay [6] relates to Stenotrophomonas maltophilia ATCC 13637.
Assay [7] concerns Enterococcus faecalis W61950.
Assay [8] deals with Klebsiella pneumoniae ESBL 61962.
In assay [9] the test system is Enterococcus faecalis f43559.
For assay [10], the system named is Pseudomonas aeruginosa 198.
Assay [11] concerns Enterococcus faecium t62764.
In assay [12] the test system is Pseudomonas aeruginosa LES400.
For assay [13], the system named is Escherichia coli ESBL 63103.
Assay [14] has as its system Staphylococcus aureus C623.
The test system of assay [15] is Enterococcus faecium mic80.
Assay [16] relates to Pseudomonas aeruginosa H1027.
The subject of assay [17] is Enterococcus faecalis ATCC 29212.
Assay [18] deals with Pseudomonas aeruginosa 9.
For assay [19], the system named is Pseudomonas aeruginosa 213.
Assay [20] has as its system Enterobacter cloacae 218R.
In assay [21] the test system is Escherichia coli ESBL 64771.
Assay [22] relates to Pseudomonas aeruginosa H1030.
Assay [23] deals with Micrococcus luteus.
The test system of assay [24] is Staphylococcus aureus.
The test system of assay [25] is Bacillus subtilis.
In assay [26] the test system is Pseudomonas aeruginosa.
In assay [27] the test system is Micrococcus luteus AB93113.
The test system of assay [28] is Escherichia coli.
Assay [29] concerns Bacillus subtilis AB91021.
Assay [30] deals with Vibrio cholerae CUN 09.
Assay [31] deals with Pseudomonas aeruginosa CUN 4158-02.
Assay [32] deals with Bordetella bronchiseptica CUN 11844-99.
Assay [33] has as its system Escherichia coli ATCC 25922.
In assay [34] the test system is Staphylococcus aureus ATCC 43300.

The MIC is the lowest concentration found to suppress growth. A higher MIC goes with a need for much substance. Regarding `CC[C@H](C)[C@H](NC(=O)CN)C(=O)N[C@@H](CC(C)C)C(=O)N[C@@H](CC(=O)O)C(=O)N[C@H](C(=O)N[C@@H](Cc1ccccc1)C(=O)N[C@@H](CCCCN)C(=O)NCC(=O)N[C@H](C(=O)N[C@@H](C)C(=O)N[C@@H](CCCCN)C(=O)NCC(=O)N[C@H](C(=O)N[C@@H](C)C(=O)N[C@@H](CCCCN)C(=O)N[C@@H](CC(=O)O)C(=O)N[C@@H](CC(C)C)C(=O)N[C@@H](C)C(=O)N[C@H](C(=O)N[C@@H](Cc1cnc[nH]1)C(=O)N[C@@H](CCSC)C(=O)N[C@@H](CC(C)C)C(=O)N[C@@H](CCC(=O)O)C(=O)N[C@@H](CCCCN)C(=O)N[C@@H](CC(C)C)C(=O)N[C@@H](CCCCN)C(=O)N[C@H]1CSSC[C@@H](C(=O)O)NC(=O)CNC(=O)[C@H]([C@@H](C)O)NC(=O)[C@H](CCSC)NC(=O)[C@H](CCCCN)NC1=O)C(C)C)C(C)C)C(C)C)[C@@H](C)O` [GILDTFKGVAKGVAKDLAVHMLEKLKCKMTGC], the figures for the MIC in assay [1], in assay [2] and in assay [3] were at least 40 µM, 40 µM (≈ 136 µg/mL) and 25 µM (≈ 85.1 µg/mL), respectively.

As to `CC[C@H](C)[C@H](NC(=O)[C@H](Cc1c[nH]c2ccccc12)NC(=O)[C@H](CCCCN)NC(=O)[C@@H](N)CCCN=C(N)N)C(=O)N[C@@H](Cc1c[nH]c2ccccc12)C(=O)N[C@@H](CCCN=C(N)N)C(=O)N[C@@H](Cc1c[nH]c2ccccc12)C(=O)N[C@@H](Cc1ccccc1)C(=O)N[C@@H](CC(C)C)C(=O)O` [RKWIWRWFL], the MIC in [4] is 1.58 µM (≈ 2.2 µg/mL); in [5], 3.16 µM (≈ 4.4 µg/mL); in [2], 1.58 µM (≈ 2.2 µg/mL); in assay [6], 0.791 µM (≈ 1.1 µg/mL); in assay [7], 12.2 µM (≈ 17 µg/mL); in assay [8], 1.58 µM (≈ 2.2 µg/mL). Further, the MIC in [9] stood at 12.2 µM (≈ 17 µg/mL); in assay [10] it was 1.58 µM (≈ 2.2 µg/mL); in [11], 1.58 µM (≈ 2.2 µg/mL); in assay [12], 3.16 µM (≈ 4.4 µg/mL); in assay [13], 0.791 µM (≈ 1.1 µg/mL); in [14], 1.58 µM (≈ 2.2 µg/mL). Besides, the MIC came to 1.58 µM (≈ 2.2 µg/mL) in assay [15]; 0.791 µM (≈ 1.1 µg/mL) in assay [16]; 3.16 µM (≈ 4.4 µg/mL) in assay [17]; 6.18 µM (≈ 8.6 µg/mL) in assay [18]; 3.16 µM (≈ 4.4 µg/mL) in assay [19]; 1.58 µM (≈ 2.2 µg/mL) in [20]. The minimal inhibitory concentration (MIC) was determined as 0.791 µM (≈ 1.1 µg/mL) in [21] and 1.58 µM (≈ 2.2 µg/mL) in assay [22].

Turning to `CC[C@H](C)[C@H](NC(=O)[C@@H](NC(=O)[C@@H]1CCCN1C(=O)[C@H](CC(C)C)NC(=O)[C@@H](N)Cc1ccccc1)[C@@H](C)CC)C(=O)N[C@H](C(=O)N[C@@H](CC(N)=O)C(=O)N[C@@H](CC(C)C)C(=O)N[C@@H](CC(C)C)C(=O)NCC(=O)N[C@@H](CCCCN)C(=O)N[C@@H](CC(C)C)C(=O)N[C@@H](CC(C)C)C(N)=O)[C@@H](C)O` [FLPIITNLLGKLL], the MIC was at least 100 µM in assay [1], 6 µM (≈ 8.72 µg/mL) in [2] and at least 100 µM in assay [3].

As to `CC[C@H](C)[C@H](NC(=O)[C@H](C)NC(=O)[C@H](CO)NC(=O)[C@@H]1CCCN1C(=O)[C@@H](NC(=O)[C@H](CC(C)C)NC(=O)[C@H](CO)NC(=O)[C@H](Cc1ccccc1)NC(=O)[C@H](CC(C)C)NC(=O)[C@@H](N)Cc1ccccc1)[C@@H](C)CC)C(=O)N[C@@H](CO)C(=O)NCC(=O)N[C@@H](CC(C)C)C(=O)N[C@H](C(=O)N[C@@H](CO)C(=O)N[C@@H](C)C(=O)N[C@@H](Cc1ccccc1)C(=O)N[C@@H](CCCCN)C(N)=O)[C@@H](C)CC` [FLFSLIPSAISGLISAFK], the MIC in assay [23] is at least 42.6 µM; in [24] it was 8.37 µM (≈ 16 µg/mL); in assay [25], 25.5 µM (≈ 48.8 µg/mL); in [26], 47.5 µM; in [27] it was at least 42.6 µM; in [28] it was 9.47 µM and 9.5 µM. Moreover, in [29], the MIC was found to be 25.5 µM (≈ 48.7 µg/mL).

In the case of `CC[C@H](C)[C@H](NC(=O)[C@H](Cc1ccccc1)NC(=O)[C@H](CCCCN)NC(=O)[C@H](Cc1ccccc1)NC(=O)[C@H](CCCN=C(N)N)NC(=O)[C@@H](N)CCCN=C(N)N)C(=O)N[C@@H](CCCN=C(N)N)C(=O)N[C@@H](Cc1c[nH]c2ccccc12)C(=O)N[C@@H](Cc1c[nH]c2ccccc12)C(=O)O` [RRFKFIRWW], the minimal inhibitory concentration (MIC) is 25.1 µM (≈ 35 µg/mL) in assay [4]; 3.15 µM (≈ 4.4 µg/mL) in assay [5]; 3.15 µM (≈ 4.4 µg/mL) in assay [2]; 0.43 µM (≈ 0.6 µg/mL) in assay [6]; at least 50.2 µM in assay [7]; at least 50.2 µM in assay [8]. Also, the MIC in assay [9] turned out to be 25.1 µM (≈ 35 µg/mL); in [10], 25.1 µM (≈ 35 µg/mL); in assay [11], 3.15 µM (≈ 4.4 µg/mL); in assay [12], 6.17 µM (≈ 8.6 µg/mL); in [13], 6.17 µM (≈ 8.6 µg/mL); in [14] it was 3.15 µM (≈ 4.4 µg/mL). Further, the MIC amounted to 3.15 µM (≈ 4.4 µg/mL) in [15]; 1.58 µM (≈ 2.2 µg/mL) in [16]; 6.17 µM (≈ 8.6 µg/mL) in assay [17]; 12.2 µM (≈ 17 µg/mL) in [18]; 25.1 µM (≈ 35 µg/mL) in [19]; 6.17 µM (≈ 8.6 µg/mL) in assay [20]. Also, the MIC was found to be 6.17 µM (≈ 8.6 µg/mL) in assay [21] and 25.1 µM (≈ 35 µg/mL) in [22].

Regarding `CC(C)C[C@H](NC(=O)[C@H](CCCCN)NC(=O)CNC(=O)[C@H](CCCCN)NC(=O)[C@H](Cc1ccccc1)NC(=O)[C@H](CCCCN)NC(=O)[C@H](Cc1c[nH]c2ccccc12)NC(=O)[C@H](CCCN=C(N)N)NC(=O)[C@H](Cc1ccccc1)NC(=O)[C@H](CCCN=C(N)N)NC(=O)[C@H](CCCN=C(N)N)NC(=O)[C@H](Cc1ccc(O)cc1)NC(=O)[C@H](CCCCN)NC(=O)[C@H](CCCCN)NC(=O)[C@H](CS)NC(=O)CN)C(=O)N[C@@H](Cc1ccccc1)C(=O)N[C@@H](CC(C)C)C(=O)N[C@@H](Cc1ccccc1)C(=O)NCC(N)=O` [GCKKYRRFRWKFKGKLFLFG], the MIC in assay [30] was 6.24 µM (≈ 16 µg/mL); in assay [31] it was 6.24 µM (≈ 16 µg/mL); in assay [2], 3.12 µM (≈ 8 µg/mL); in assay [32] it was 1.56 µM (≈ 4 µg/mL); in [33], 3.12 µM (≈ 8 µg/mL); in assay [34], 3.12 µM (≈ 8 µg/mL).
